Ki and Ki app data for 56 compounds are collected here from ChEMBL document CHEMBL1136562, “Structure-activity relationships of substituted benzothiophene-anthranilamide factor Xa inhibitors” (Bioorg Med Chem Lett, 2003).

Molecules are shown by their SMILES.

The target of one test is Coagulation factor X (Homo sapiens, UniProt P00742). Kind of test: Inhibition constant against human factor Xa. The settings on record: read-out: Ki app.
The next test concerns the target Prothrombin (Homo sapiens, UniProt P00734). Kind of test: Inhibition constant against human thrombin. The settings on record: read-out: Ki app.
Test [1] addresses Cationic trypsin (Bos taurus). Kind of test: Inhibition constant against bovine trypsin.

Coagulation factor X, sequence (P00742 41-179 limits assumed): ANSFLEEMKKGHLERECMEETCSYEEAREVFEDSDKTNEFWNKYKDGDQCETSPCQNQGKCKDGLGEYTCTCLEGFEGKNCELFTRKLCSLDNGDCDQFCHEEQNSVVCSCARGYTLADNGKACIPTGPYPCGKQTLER
Coagulation factor X, sequence (P00742 235-488 limits assumed): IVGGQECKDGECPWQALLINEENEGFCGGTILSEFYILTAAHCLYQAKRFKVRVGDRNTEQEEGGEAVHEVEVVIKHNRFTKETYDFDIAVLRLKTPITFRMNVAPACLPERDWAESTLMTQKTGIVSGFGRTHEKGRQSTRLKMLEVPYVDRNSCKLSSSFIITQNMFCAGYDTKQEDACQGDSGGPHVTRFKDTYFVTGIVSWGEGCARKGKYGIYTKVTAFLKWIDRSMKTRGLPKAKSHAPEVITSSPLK

As to `O=C(Nc1ccc(Cl)cc1)c1cc(Cl)c(F)cc1NC(=O)c1sc2ccccc2c1Cl`, the Ki was 0.007 µM on Coagulation factor X and over 5 µM on Prothrombin.

In the case of `Cc1ccc(NC(=O)c2sc3ccccc3c2Cl)c(C(=O)Nc2ccc(C(F)(F)F)cc2)c1`, the Ki on Coagulation factor X and at Prothrombin was over 5 µM throughout. The compound also yielded a Ki app in test [1] of over 5 µM.

Take `COc1cc(Cl)cc(C(=O)Nc2ccc(Cl)cc2)c1NC(=O)c1sc2ccccc2c1Cl`: the values for the Ki on Coagulation factor X and on Prothrombin were 0.0022 µM and over 5 µM, respectively. This compound also showed a Ki app in test [1] of over 5 µM.

As for `CSc1ncc(Cl)c(C(=O)Nc2ccc(C)cc2C(=O)Nc2ccc(Cl)cc2)n1`, the Ki on Coagulation factor X and at Prothrombin was over 5 µM each time. The compound also returned a Ki app in test [1] of over 5 µM.

As to `O=C(Nc1ccc(Cl)cc1)c1cccc(O)c1NC(=O)c1sc2ccccc2c1Cl`, the Ki on Coagulation factor X was 0.018 µM; on Prothrombin, over 5 µM.

For `O=C(Nc1cccc(Cl)c1C(=O)Nc1ccc(Cl)cc1)c1sc2ccccc2c1Cl`, the Ki at Coagulation factor X and at Prothrombin was over 5 µM in each case. In test [1], this compound displayed a Ki app of over 5 µM.

As for `O=C(Nc1ccc(Cl)cc1)c1ccc(Cl)cc1NC(=O)c1sc2ccccc2c1Cl`, the Ki at Coagulation factor X was 0.026 µM; on Prothrombin, over 5 µM.

Regarding `Cc1ccc(NC(=O)c2sc3ccccc3c2Cl)c(C(=O)Nc2ccc(Cl)cn2)c1`, the Ki on Coagulation factor X is 0.0023 µM; on Prothrombin, over 5 µM. For the same compound, the Ki app in test [1] is over 5 µM.

As to `Cc1ccc(NC(=O)c2sccc2Cl)c(C(=O)Nc2ccc(F)cc2)c1`, the Ki is 0.39 µM on Coagulation factor X and over 5 µM at Prothrombin. Also, the Ki app in test [1] is over 5 µM.

In the case of `Cc1ccc(NC(=O)c2sc(C)nc2C)c(C(=O)Nc2ccc(Cl)cc2)c1`, the Ki at Coagulation factor X was 0.21 µM; at Prothrombin, over 5 µM.

In the case of `O=C(Nc1ccc(Cl)cc1)c1cc([N+](=O)[O-])ccc1NC(=O)c1sc2ccccc2c1Cl`, the results for the Ki at Coagulation factor X and at Prothrombin were over 0.5 µM and over 5 µM, respectively.

Turning to `Cc1ccc(C(=O)Nc2ccc(Cl)cc2)c(NC(=O)c2sc3ccccc3c2Cl)c1`, the Ki was 0.0072 µM at Coagulation factor X and over 5 µM at Prothrombin. Besides, the Ki app in test [1] is over 5 µM.

Take `Cc1ccc(NC(=O)c2sc3ccccc3c2C)c(C(=O)Nc2ccc(F)cc2)c1`: the figures for the Ki at Coagulation factor X and on Prothrombin were 0.025 µM and over 5 µM, respectively. The Ki app in test [1] was over 5 µM.

Turning to `CCOC(=O)COc1cccc(C(=O)Nc2ccc(Cl)cc2)c1NC(=O)c1sc2ccccc2c1Cl`, the Ki on Coagulation factor X is 0.022 µM; on Prothrombin it was over 5 µM. This compound returned a Ki app in test [1] of over 5 µM.

In the case of `Cc1ccc(NC(=O)c2sc3ccccc3c2Cl)c(C(=O)Nc2ccc(Br)cc2)c1`, the Ki on Coagulation factor X was 0.00046 µM; on Prothrombin, over 5 µM.

For `Cc1ccc(NC(=O)c2sc3ccccc3c2Cl)c(C(=O)Nc2ccccn2)c1`, the values for the Ki on Coagulation factor X and on Prothrombin were 0.03 µM and over 5 µM, respectively. For the same compound, in test [1], the Ki app was over 5 µM.

Regarding `Cc1ccc(NC(=O)c2sc3ccccc3c2Cl)c(C(=O)Nc2ccc(CN)cc2)c1`, the Ki is 1.4 µM on Coagulation factor X and over 5 µM at Prothrombin. This compound also yielded a Ki app in test [1] of over 5 µM.

In the case of `COc1c(Br)csc1C(=O)Nc1ccc(C)cc1C(=O)Nc1ccc(Cl)cc1`, the Ki at Coagulation factor X was 0.054 µM; on Prothrombin, over 5 µM.

In the case of `COC(=O)c1ccc(NC(=O)c2cc(C)ccc2NC(=O)c2sc3ccccc3c2Cl)cc1`, the Ki at Coagulation factor X and at Prothrombin was over 5 µM throughout. Moreover, the Ki app in test [1] is over 5 µM.

`Cc1cc(NC(=O)c2sc3ccccc3c2Cl)c(C(=O)Nc2ccc(Cl)cc2)cc1Cl`: the Ki is 0.011 µM at Coagulation factor X and over 5 µM on Prothrombin. In test [1], the Ki app was over 5 µM.

As to `COc1ccsc1C(=O)Nc1ccc(C)cc1C(=O)Nc1ccc(Cl)cc1`, the Ki at Coagulation factor X is 0.16 µM; at Prothrombin it was over 5 µM. The compound also gave a Ki app in test [1] of over 5 µM.

As to `Cc1ccc(NC(=O)c2sc3ccccc3c2Cl)c(C(=O)Nc2ccc(C#N)cc2)c1`, the Ki is 0.15 µM on Coagulation factor X and over 5 µM at Prothrombin.

For `Cc1ccc(NC(=O)c2sc3ccccc3c2Cl)c(C(=O)Nc2ccc(N)cc2)c1`, the Ki was 0.28 µM on Coagulation factor X and over 5 µM at Prothrombin.

As to `Cc1ccc(NC(=O)c2cc(C)ccc2NC(=O)c2sc3ccccc3c2Cl)cc1`, the Ki was 0.0071 µM at Coagulation factor X and over 5 µM on Prothrombin. This compound also registered a Ki app in test [1] of over 5 µM.

As to `O=C(Nc1ccc(Cl)cc1)c1cc(Cl)ccc1NC(=O)c1sc2ccccc2c1Cl`, the Ki on Coagulation factor X is 0.0006 µM; at Prothrombin, over 5 µM. Moreover, the Ki app in test [1] is over 5 µM.

Turning to `O=C(Nc1ccc(Cl)cc1)c1ccc(C(F)(F)F)cc1NC(=O)c1sc2ccccc2c1Cl`, the Ki on Coagulation factor X is 0.1 µM; at Prothrombin, over 5 µM. In test [1], this compound displayed a Ki app of over 5 µM.

Turning to `Cc1ccc(NC(=O)c2sc3ccccc3c2O)c(C(=O)Nc2ccc(Cl)cc2)c1`, the results for the Ki at Coagulation factor X and at Prothrombin were 4.4 µM and over 5 µM, respectively.

Turning to `O=C(Nc1ccc(Cl)cc1)c1cc(F)ccc1NC(=O)c1sc2ccccc2c1Cl`, the Ki at Coagulation factor X was 0.005 µM; on Prothrombin it was over 5 µM.

For the compound `COc1c(C(=O)Nc2ccc(C)cc2C(=O)Nc2ccc(Cl)cc2)sc2ccccc12`, the Ki on Coagulation factor X was 0.0059 µM; on Prothrombin, over 5 µM. In test [1], this compound registered a Ki app of over 5 µM.

`O=C(Nc1ccc(Cl)cc1)c1ccc(F)cc1NC(=O)c1sc2ccccc2c1Cl`: the Ki on Coagulation factor X was 0.015 µM; at Prothrombin, over 5 µM.

For the compound `Cc1ccc(NC(=O)c2sccc2Cl)c(C(=O)Nc2ccc(Cl)cc2)c1`, the figures for the Ki on Coagulation factor X and at Prothrombin were 0.13 µM and over 5 µM, respectively.

Turning to `Cc1ccc(NC(=O)c2sc3ccccc3c2Cl)c(C(=O)Nc2ccc(C(=O)O)cc2)c1`, the Ki on Coagulation factor X is 4.7 µM; at Prothrombin it was over 5 µM. Also, the Ki app in test [1] was over 5 µM.

For the compound `Cc1ccc(NC(=O)c2sc3ccccc3c2Cl)c(C(=O)Nc2cccc(Cl)c2)c1`, the Ki is 0.26 µM at Coagulation factor X and over 5 µM at Prothrombin. In addition, the Ki app in test [1] is over 5 µM.

For the compound `Cc1ccc(NC(=O)c2sc3ccccc3c2Cl)c(C(=O)Nc2cccnc2)c1`, the values for the Ki at Coagulation factor X and on Prothrombin were 0.21 µM and over 5 µM, respectively. Further, the Ki app in test [1] is over 5 µM.

Take `O=C(Nc1ccc(Cl)cc1)c1cccc(Cl)c1NC(=O)c1sc2ccccc2c1Cl`: the Ki at Coagulation factor X was 0.024 µM; at Prothrombin, over 5 µM. The same compound displayed a Ki app in test [1] of over 5 µM.

For `O=C(Nc1ccc(Cl)cc1)c1cc(N2CCCC2)ccc1NC(=O)c1sc2ccccc2c1Cl`, the Ki on Coagulation factor X and at Prothrombin was over 5 µM throughout. The Ki app in test [1] is over 5 µM.

`Cc1ccc(NC(=O)c2cc3ccccc3s2)c(C(=O)Nc2ccc(F)cc2)c1`: the Ki on Coagulation factor X was 0.59 µM; at Prothrombin, over 5 µM.

In the case of `Nc1ccc(NC(=O)c2sc3ccccc3c2Cl)c(C(=O)Nc2ccc(Cl)cc2)c1`, the Ki is 0.016 µM on Coagulation factor X and over 5 µM at Prothrombin. This compound also returned a Ki app in test [1] of over 5 µM.

In the case of `Cc1ccc(NC(=O)c2cccnc2C)c(C(=O)Nc2ccc(Cl)cc2)c1`, the Ki on Coagulation factor X and at Prothrombin was over 5 µM each time. Further, the Ki app in test [1] is over 5 µM.

Take `Cc1ccc(NC(=O)c2ccccc2Br)c(C(=O)Nc2ccc(Cl)cc2)c1`: the Ki on Coagulation factor X is 0.96 µM; at Prothrombin, over 5 µM. Moreover, the Ki app in test [1] is over 5 µM.

Regarding `Cc1cc(Cl)cc(C(=O)Nc2ccc(Cl)cc2)c1NC(=O)c1sc2ccccc2c1Cl`, the results for the Ki on Coagulation factor X and on Prothrombin were 0.0018 µM and over 5 µM, respectively.

For the compound `COc1ccc(COc2ccc(NC(=O)c3sc4ccccc4c3Cl)c(C(=O)Nc3ccc(Cl)cc3)c2)cc1`, the Ki on Coagulation factor X and at Prothrombin was over 5 µM throughout. In test [1], the Ki app is over 5 µM.

Turning to `O=C(Nc1ccc(Cl)cc1)c1cc(Cl)cc(O)c1NC(=O)c1sc2ccccc2c1Cl`, the Ki on Coagulation factor X was 0.0037 µM; at Prothrombin, over 5 µM.

As to `COc1cccc(C(=O)Nc2ccc(Cl)cc2)c1NC(=O)c1sc2ccccc2c1Cl`, the Ki at Coagulation factor X is 0.022 µM; at Prothrombin it was over 5 µM.

For `Cc1cccc(C(=O)Nc2ccc(Cl)cc2)c1NC(=O)c1sc2ccccc2c1Cl`, the Ki on Coagulation factor X was 0.058 µM; at Prothrombin, over 5 µM. The compound further registered a Ki app in test [1] of over 5 µM.

For `Cc1ccc(NC(=O)c2sc3ccccc3c2Cl)c(C(=O)Nc2ccccc2)c1`, the Ki is 0.019 µM on Coagulation factor X and over 5 µM at Prothrombin. This compound also yielded a Ki app in test [1] of over 5 µM.

Consider `Cc1ccc(NC(=O)c2ccc3ccccc3c2)c(C(=O)Nc2ccc(Cl)cc2)c1`, for which the Ki at Coagulation factor X was 0.078 µM; at Prothrombin it was over 5 µM. The compound also yielded a Ki app in test [1] of over 5 µM.

Turning to `O=C(Nc1cccc(F)c1C(=O)Nc1ccc(Cl)cc1)c1sc2ccccc2c1Cl`, the Ki at Coagulation factor X is 0.026 µM; on Prothrombin, over 5 µM. The Ki app in test [1] was over 5 µM.

In the case of `CCOc1ccc(NC(=O)c2cc(C)ccc2NC(=O)c2sc3ccccc3c2Cl)cc1`, the Ki at Coagulation factor X and on Prothrombin was over 5 µM each time. In test [1], this compound came in with a Ki app of over 5 µM.

On to `Cc1cccc(NC(=O)c2sc3ccccc3c2Cl)c1C(=O)Nc1ccc(Cl)cc1`, for which the Ki at Coagulation factor X and at Prothrombin was over 5 µM each time. The same compound came in with a Ki app in test [1] of over 5 µM.

Consider `CN1CCN(c2ccc(NC(=O)c3sc4ccccc4c3Cl)c(C(=O)Nc3ccc(Cl)cc3)c2)CC1`, for which the Ki was 0.47 µM at Coagulation factor X and over 5 µM on Prothrombin. The compound further displayed a Ki app in test [1] of over 5 µM.

As for `Cc1ccc(NC(=O)c2scc(S(C)(=O)=O)c2Cl)c(C(=O)Nc2ccc(Cl)cc2)c1`, the Ki on Coagulation factor X was 0.014 µM; on Prothrombin, over 5 µM. In test [1], this compound gave a Ki app of over 5 µM.

In the case of `Cc1ccc(NC(=O)c2sc3ccccc3c2Cl)c(C(=O)Nc2ccc(F)cc2)c1`, the Ki on Prothrombin was over 5 µM.

As for `COc1ccc(NC(=O)c2cc(C)ccc2NC(=O)c2sc3ccccc3c2Cl)cc1`, the Ki is 0.016 µM on Coagulation factor X and over 5 µM on Prothrombin. The same compound returned a Ki app in test [1] of over 5 µM.

For the compound `Cc1ccc(NC(=O)c2sc3ccccc3c2Cl)c(C(=O)Nc2ccccc2Cl)c1`, the Ki at Coagulation factor X and at Prothrombin was over 5 µM in each case.

Take `Cc1ccc(NC(=O)c2sc3ccccc3c2Cl)c(C(=O)Nc2ccc(Cl)cc2)c1`: the Ki at Prothrombin is over 5 µM.
